Data: patent publication US11186640B2, “Method for the identification of immunotherapy-drug combinations using a network approach” (THE UNIVERSITY OF WESTERN AUSTRALIA, priority 2014, dated 2021)
Entries after “also recorded” stand apart in the source; their conditions may differ. Like-named read-outs stand apart in the source and are kept apart here.

Tests used:
[1] = system: Renca kidney cancer cells; type: in vivo, BALB/c mice
[2] = system: AB1-HA mesothelioma; test: in vivo co-treatment with anti-CTLA-4 in AB1-HA tumour bearing mice; design: species or system BALB/c mice; details: for anti-tumour response / response rate to anti-CTLA-4 on co-treatment: drug in combination with anti-CTLA-4
[3] = system: AB1-HA mesothelioma; test: in vivo co-treatment with anti-GITR in AB1-HA tumour bearing mice; design: species or system BALB/c mice; details: drug in combination with anti-GITR
[4] = system: Line-1 lung cancer cells; test: in vivo co-treatment with anti-CTLA4 in Line-1 lung cancer model; design: species or system BALB/c mice
[5] = mice, i.p. administration; cited from earlier work
[6] = mouse, in vivo, ip, 400 mg/kg
[7] = system: melanoma; details: melanoma patients after ipilimumab; cited from earlier work

Compound | anti-tumour response / response rate to anti-CTLA-4 on co-treatment [2] | further results
CC1=C(/C=C/C(C)=C/C=C/C(C)=C/C(=O)O)C(C)(C)CCC1 [ATRA, All-trans Retinoic Acid] | clear effect; also recorded: increased anti-tumour response | survival / clinical efficacy of CTLA4 blockade on co-treatment ([1]; mouse, in vivo): improve the clinical efficacy; also recorded: improved survival
O=S(=O)(c1cccc2cnccc12)N1CCCNCC1 [Fasudil] | increased the response rate | growth delay ([2]; drug alone): did not result in any growth delay
O=[N+]([O-])O[C@H]1CO[C@H]2[C@@H]1OC[C@H]2O[N+](=O)[O-] [ISDN, Isosorbide dinitrate] | increase the therapeutic efficacy; also recorded: increased the response rate | survival / efficacy of checkpoint blockade with anti-GITR on co-treatment [3]: could equally be improved; also recorded: improved survival; survival / clinical efficacy of CTLA4 blockade on co-treatment ([1]; Renca kidney cancer, drug in combination with anti-CTLA4): improve the clinical efficacy; also recorded: improved survival; complete regression / clinical efficacy of CTLA4 blockade on co-treatment ([4]; drug in combination with anti-CTLA4): improve the clinical efficacy; also recorded: complete regression in a substantial proportion of mice; complete regression ([4]; either treatment alone): not observed
CCOC(=O)N1CCN(/[N+]([O-])=N/Oc2ccc([N+](=O)[O-])cc2[N+](=O)[O-])CC1 [JS-K] | improves the clinical benefit | 
NC(=NCCC[C@H](N)C(=O)O)N[N+](=O)[O-] [L-NNA] | diminished; also recorded: abrogated the anti-tumour effect | 
Cc1cc(Nc2cc(N3CCN(C)CC3)nc(Sc3ccc(NC(=O)C4CC4)cc3)n2)n[nH]1 [VX-680] | significantly increased | 
CN1CC[C@H](c2c(O)cc(O)c3c(=O)cc(-c4ccccc4Cl)oc23)[C@H](O)C1 [flavopiridol] | increased the response rate | 
COc1c2c(cc3c1OCO3)CCN(C)C2 [hydrocotarnine] | increased anti-tumour response | 
Cc1cc2c(cc1S(N)(=O)=O)S(=O)(=O)CCC2 [meticrane] | clear effect; also recorded: increased anti-tumour response | LD50 [5]: 10000 mg/kg; clinical signs [6]: slightly ruffled
Cc1ncc(CO)c(CO)c1O [pyridoxine] | clear effect; also recorded: increased anti-tumour response | 
ipilimumab |  | 7-year survival [7]: 17%
